Columns and labels:
PLD1 = experiment: basic PLD assay with purified PLD1 and activators (headgroup-labeled phosphatidylcholine); assay type: biochemical, human; parameters: increase in maximal effect of PKC- on PLD1: dose or concentration left out as unconfirmed; details: for lipid content giving maximal activation of PLD1: lipid fraction of vesicles; for stimulation of PLD1 activity by lipid: vesicles with 7% acidic lipid in PE/PS background
Protocol: The basic PLD assay was performed as described in Hammond, J. Biol. Chem. 270: 29640-43 (1995) using headgroup-labeled phosphatidyl-choline. Lipids were prepared and labeled. Labeled choline was obtained from American Radiolabelled Chemicals Inc. (Catalog No. ART 284) and extracted with chloroform and methanol 100 ml chloroform/100 ml methanol/90 ml water (100,000 dpm/assay; 1.6 ml). The mixture was vortexed, spun and the bottom layer collected and added to the lipid mixture to give a final concentration of 67 mM PE (Avanti Polar Lipids, Alabaster, Ala., catalog no 850757), 7.6 mM PIP2 (suspended in 20 mM Hepes, pH 7) and 5.4 mM PC (Avanti catalog no 850457). The labeled choline/lipid mixture was sonicated and vortexed until the lipids are dissolved. Sf9 cells were plated onto large flasks (30×10^6 cells/flask) and left to adhere. Once adhered, medium was removed and the cells were infected with virus (at 1:5 or 1:10) for 1 hour with gentle rocking. After that time, virus was removed and fresh medium added, and the cells left to grow for 48 hours at 27 C. Medium was removed from the flask and the cells were washed once with PBS and then lysed in 5 ml lysis buffer (25 mM Tris, 5 mM EDTA, pH 7.5). Cells were scraped out of the flask, placed on ice, sonicated for 10 seconds and centrifuged in a […] centrifuge for 10 minutes at 700 rpm. Supernatant was removed and spun at 30,000 rpm for 60 minutes. Supernatant from this second centrifugation was then removed, and the pellet was resuspended in 0.5 ml lysis buffer, votexed and allowed to settle out.
For the assay, the resulting supernatant containing PLD1 enzyme (1-10 ml) was combined with G-protein(s), 20 ml assay buffer (30 mM Na-Hepes, pH 7.5, 3 mM EGTA, 80 mM KCl, 1 mM DTT, 3.0 mM MgCl2 and 2.0 mM CaCl2) and 10 mM Hepes to make a total volume of 50 ml. 50 ml of the labeled lipid mixture was added, vortexed thoroughly, and incubated at 37 C. for 30 minutes. The reaction was stopped by adding 200 ml of 10% TCA and 100 ml of 10 mg/ml BSA and centrifugation for 5 minutes at 10,000 rpm. […] of the supernatant was removed and counted in 2 ml of scintillation fluid using a LKB scintillation counter for 60 seconds. This was the basic assay used for the following experiments; any modifications were as described below.
To investigate the dependence of enzyme activity on calcium and magnesium, the concentrations of calcium and magnesium ions of the assay medium were varied. For some assays the lipid component of the vesicles was altered. Ptdins (4,5)P2 was purified from a lipid extract of bovine brain as described in Hammond, supra. Synthetic Ptdins (3,4,5)P3 was obtained from Glenn Prestwich, Dept. of Chemistry, SUNY Stony Brook. [^32P]-labeled phospholipids were isolated from extracts of U937 cells labeled overnight with [^32P] PO4 2- as described in Hammond, supra.
Vesicles containing 7% acidic lipid in a background of PE/PS were employed in the foregoing assay. The lipids tested were PI(4,5)P2, PI(3,4,5)P3, PI4P and PI.
ARF-stimulated PLD1activity was determined as the free concentrations of these ions were varied in the assay medium. PLD1 activity was insensitive to changes in Ca^2+ concentration over a side range (<10^−8 M to 10^−2 M). By contrast, ARF-stimulated PLD1 activity was dependent on Mg^2+ with half-maximal activity observed at approximately 10^−4 M.
PLD1 was incubated with increasing concentrations of purified GTP S-activated ARF1(ADP-ribosylation factor 1), RhoA, Rac1 and cdc42. […] RhoA and Rac1 stimulated the enzyme approximately 10- and 13-fold respectively and cdc42 produced an approximately 5-fold activation. Effects of ARF and Rac1 were clearly saturable and, although the concentrations of purified RhoA and cdc42 obtained limited the final concentrations achieved in the assay, at the highest concentrations used, effects of these activators also appeared to be approaching saturation. Activation of PLD1 by these G-proteins was strictly dependent on GTP S. […]

HL-60 cells = experiment: RT-PCR quantification of hPLD2 during dbcAMP-induced HL-60 cell differentiation; assay type: cell-based, human; details: 0.5 mM dbcAMP
Protocol: From the data of Example 7, it was known that a human analog of mPLD2 existed. mPLD2 primers were made from the expressed sequence tags existing in GenBank. To analyze changes in the levels of hPLD2 activity during HL-60 cell differentiation induced by dcbAMP, HL-60 cells maintained in RPMI-1640 medium supplemented with 10% fetal bovine serum, 100 units.ml penicillin and 100 µg/ml streptomycin in a humidified atmosphere containing 5% CO2, at 37 C. were grown in RPMI-1640 medium without fetal bovine serum for 24 hours. Differentiation was initiated by the addition of 0.5 mM dbcAMP. Levels of hPLD2 were quantified later by RT-PCR. Total RNA was isolated from the HL-60 cells at the exponential growth stage by the acid guanidine thiocyanate method following the protocol of Chomczynski, Anal. Biochem. 162:156-62(1992). Two g of RNA was reverse transcribed by using random hexamer mixed primers. The number of amplification cycles were determined to individual primer sets in order to maintain exponential rate of product amplification. Amplified DNA fragments were subjected to electrophoresis on 1.5% agarose gel and visualized by ethidium bromide staining. The intensity of bands was quantified by a densitometer (Atto Densitograph, Tokyo, Japan). Primer E (Forward):
5′[…] 3′. Primer F (reverse):
5′[…] 3′. Amplification conditions used were 94 C. for 30 seconds, 60 C. for 1 minute, and 72 C. for 1 minute; 25-27 cycles.

Molecule: ARF1: Human ARF1, bacterially-expressed and purified G-protein, GTP S-activated
- stimulation of PLD1 (maximal, concentration series) (PLD1; GTP S-activated G-protein, increasing concentrations): approximately 50 fold
- activation of PLD1 by activator alone (PLD1; maximally effective concentration: ARF1 4.7 M, RhoA 3.8 M, Rac1 5.3 M, cdc42 5.5 M, PKC- 0.043 M): 49 fold
- activation of PLD1 over basal combined with PKC- (PLD1; plus maximally effective PKC-): 145 fold

Molecule: hPLD2: human analog of mPLD2
- increase in level (printed as activity) on day 1 (HL-60 cells; day 1, RT-PCR): approximately 8 fold
- increase in level (printed as activity) on day 2 (HL-60 cells; day 2, RT-PCR): approximately 12 fold
- increase in level (printed as activity) on day 3 (HL-60 cells; day 3, RT-PCR): approximately 20 fold

Molecule: [Ca+2] [Ca^2+]
- sensitivity of PLD1 activity to ion concentration (PLD1; ARF-stimulated, <10^−8 M to 10^−2 M): insensitive

Molecule: O=P(O)(O)O[C@@H]1[C@H](O)[C@H](O)[C@@H](OP(=O)(O)O)[C@H](OP(=O)(O)O)[C@H]1O [inositol 1,4,5 trisphosphate]
- activation of PLD1 or block of activation by PI(4,5)P2 or PI(3,4,5)P3 (PLD1; soluble, concentrations up to […]): neither activated PLD1 nor blocked activation

Molecule: PI(3,4,5)P3
- lipid content giving maximal activation of PLD1 (PLD1): approximately 7%
- stimulation of PLD1 activity by lipid (PLD1): stimulated

Molecule: CCCCCCCCCCCCCC(=O)O[C@@H]1[C@@H](C)[C@@]2(O)[C@@H](C=C(CO)C[C@]3(O)C(=O)C(C)=C[C@@H]23)[C@@H]2C(C)(C)[C@]12OC(C)=O [PMA, phorbolmyristate acetate]
- increase in potency with which PKC- stimulated PLD1 (PLD1; 100 mM PMA in assay medium): approximately 10 fold
- increase in maximal effect of PKC- on PLD1 (PLD1; PMA in assay medium): approximately 1.5 fold

Molecule: phosphotidylinositol [PI]
- stimulation of PLD1 activity by lipid (PLD1): Only PI(4,5)P2 and PI(3,4,5)P3 stimulated

Molecule: [Mg+2] [Mg^2+]
- EC50 (PLD1; ARF-stimulated PLD1, free ion concentration, read-out: concentration for half-maximal ARF-stimulated PLD1 activity): ~100 µM

Molecule: phosphotidylinositol 4-phosphate [PI4P]
- stimulation of PLD1 activity by lipid (PLD1): Only PI(4,5)P2 and PI(3,4,5)P3 stimulated

Molecule: PI(4,5)P2
- lipid content giving maximal activation of PLD1 (PLD1): approximately 7%
- stimulation of PLD1 activity by lipid (PLD1): stimulated

— patent US6379665B1, “Phospholipase D polypeptide and DNA sequences” (Onyx Pharmaceuticals, Inc., priority 1996, dated 2002)
